In patent US12102607B2, “C5aR inhibitors for use in the treatment of chemotherapy-induced iatrogenic pain” (Dompe' Farmaceutici S.P.A., priority 2017, dated 2024):

Key:
[1] = system: chemotherapy-induced iatrogenic pain (CIIP) in male Balb/C mice; test: CIIP model (paclitaxel), mechanical threshold with von Frey filaments, DF2593A; type: in vivo
Experimental: (§1) The experiments were performed in male Balb/c wild type (WT) and in C5aR deficient (C5aR^−/−) mice (6-8 weeks age). For the experiments with DF2593A, animals were housed in the animal care facility of the Ribeirao Preto Medical School, University of Sao Paulo, in plastic cages at 20° C.±1° C. with water and food ad libitum and controlled light/dark cycle. When done oral acute treatment, animals were kept without food for 2-4 hours. Animals were taken to the testing room at least 1 h before experiments and were used only once. Animal care and handling procedures were in accordance with the International Association for the Study of Pain guidelines and with the control of Animal Ethic Committee from Ribeirao Preto Medical School, protocol 120/2014.
(§2) The protocol used was performed according POLOMANO et al., 2001, adapted to mice. The animals received paclitaxel 4 mg/kg intraperitoneally (i.p.) for four alternate days (days 1, 3, 5, and 7). During treatment period, mechanical and cold allodynia were measured 4 hours after the injection of paclitaxel.
(§3) DF2593A was orally given in dose of 1 mg/kg at 8 and 14th days after first paclitaxel injection. The effect of drug was evaluated 2, 4, 6 and 24 hours after administration.
(§4) DF2593A was given orally in a dose of 1 mg/kg, 12 in 12 hours, for 7 days during the induction phase of CIIP. On days 1, 3 5 and 7, the administration of DF2593A was 1 hour before paclitaxel.
(§5) DF2593A in doses of 10, 30 or 100 μg/5 μL was injected at 8 and 14th days after the first injection of paclitaxel (CIIP).
(§6) In DF2593A experiments, mechanical hyperalgesia was tested using von Frey filaments. Mice were placed in acrylic cages (12×10×17 cm) with wire grid floors in a quiet room 15-30 minutes before the start of testing. A crescent series of filaments were applied on right paw of CIIP mice. The lower filament able to elicit flinching movements was recorded as the mechanical threshold. The animals were tested before and after treatments and the results are expressed as log of mechanical threshold.

[2] = system: chemotherapy-induced iatrogenic pain (CIIP) in male Balb/C mice; test: CIIP model (paclitaxel), cold response acetone test, DF2593A; type: in vivo
Experimental: as §1, §2, §3, §4, §5
In the same apparatus of von Frey test, and nearly 15 minutes after the mechanical test, was performed the acetone test. With a 1 mL syringe, one drop (50 μL) of pure acetone was released allowing the spreading of liquid for the both paw surfaces (dorsal and plantar). All movements as licking, flinching or lifting of paw were recorded with a chronometer in a total testing time of 2 minutes.

acetylated α-Tubulin = test: In-cell western analysis of acetylated α-Tubulin in DRG neurons; type: cell-based, Sprague Dawley rat; details: for Acetylated α-Tubulin (% of UT): DRG neurons
Experimental: (§7) Dorsal Root Ganglion neurons were obtained by dissociation of post natal (P2) Sprague Dawley rat ganglia (Envigo, Bresso Italy), following well-defined protocols (O'Meara et al, 2011; Owen et al, 2012). To minimize introduction of contaminating cells into the culture, any excessively long roots were trimmed from DRGs. After the isolation, DRGs were enzymatically dissociated as follows: • 20 minutes of 1.5 mg/ml papain exposure at 37° C., • 30 minutes of 4 mg/ml collagenase exposure at 37° C.
(§8) Subsequently, cells were mechanically dissociated with a fire polished glass Pasteur pipette, in order to obtain a single cell suspension.
(§9) Once dissociation was achieved, cells were seeded onto 96 black multiwell plates coated with Laminin (10 ug/mL, overnight at Room Temperature, RT) at selected densities. Following 1 week of incubation in DMEM high glucose medium supplemented with 10% FBS, 1× N2, 1× B27, 100 IU/mI penicillin, […] streptomycin, cells were treated according to experimental needs.
Dorsal Root Ganglion neurons isolated as previously reported were subjected to the following experimental challenge scheme as depicted in FIG. 10.
Paclitaxel, C5a and drugs were administered 24 hr prior the in-cell western experiment. Following 24 hr of treatment with appropriate stimuli as previously indicated, cells were washed with 1×PBS and fixed with 3,7% formaldehyde for 15 min. After the removal of fixing solution, cells were washed with 1×PBS and permeabilized with 1×PBS-0,1% Triton X-100 for 5 min at RT. Cells were then stained over night at 4° C. with the anti-acetylated α-Tubulin antibody, diluted 1:500 in Odyssey Blocking buffer, following manufacturer's protocol.
The next day, cells were washed with 1×PBS-0.1% Tween20, and stained with the secondary antibody (diluted 1:800 in Odyssey Blocking buffer, as recommended by the protocol) and with the CellTag 700Stain […]. To lower the background, Tween20 at a final concentration of 0.2% was added to the Odyssey Blocking buffer. 96-well plates were then read at Odyssey CLx Imaging system and images acquired. Data analysis was carried out by the use of Image Studio 2.1 software.
Paclitaxel was given to the DRG neurons following 7 days of culture at the concentration of 200 nM (Scuteri et al. 2006).
Effect of DF3966Y in C5α-induced neuronal toxicity In order to determine whether the observed effects may be triggered also by C5a, recombinant mouse C5a 1 μg/ml (111.11 nM) was given to the DRG neurons after 7 days of culture in presence or absence of DF3966Y 1 μM.
After 24 hr of incubation, acetylated α-Tubulin was quantified using in-cell western technique, as previously described.

DRG neurons [3] = test: Synapse number on DRG neurons (synaptotagmin staining, image analysis); type: cell-based, Sprague Dawley rat
Experimental: as §7, §8, §9
(§10) Alpha Tubulin Acetylation DRG-derived neurons were cultured for 7 days and then treated with:
(§11) • paclitaxel (200 nM, 500 nM, 1 μM and 5 μM, 20 μM) in presence or absence of DF3966Y (0.1, 1 and 10 μM) or DF2593A (0.1, 1 and 10 μM) • or C5a (500 ng/ml and 1 μg/ml) in presence or absence of DF3966Y (1 μM)
(§12) After 24 hr of treatment, cells were stained by immunofluorescence.
(§13) Cells were fixed with saccharose-paraformaldehyde then staining was performed overnight. Primary antibodies (anti—Ill Tubulin and anti-synaptotagmin 1) were diluted 1:500 in 1×PBS-4% BSA-2% Normal goat serum and 0.3% Triton x-100. The next day, cells were washed with 1×PBS-4% BSA and secondary antibodies were used diluted 1:500 in 1×PBS-4% BSA-2% Normal goat serum and 0.3% Triton x-100. After 1 hr of incubation, cells were washed with 1×PBS. Hoechst was used as a counterstain.
(§14) Sixteen images per well were taken with ArrayScan XTI HCA Reader (Thermo Fisher Scientific) with and 40× objective. All the analysis were done with HCS Studio software
For synapse count a threshold has been set, in particular all the objects, positive to synaptotagmin staining, in the range 0.365-2.457 μm^2 have been considered as synapses.
(§15) Cells number, synapse number and dentritic arborization were evaluated in untreated cells and in cells stimulated with paclitaxel and C5a alone or in presence of the drug. As marker of chemotherapy-induced toxicity, the total number of synapses on DRG neurons was quantitative evaluated as percentage of the number of synapse with respect to untreated (UT) control.
(§16) Data are obtained as the sum of the values obtained by the analysis of sixteen fields per well for each experiment. Percentage of the values in respect to the relative mean untreated group was calculated. Mean of the percentages from 4 separate experiments was plotted in the following Tables 2-7.

DRG neurons [4] = test: Electrophysiological recordings (whole-cell patch-clamp, current-clamp) of DRG-derived neurons; type: cell-based, Sprague Dawley rat; details: 1 μg/ml C5a alone
Experimental: as §7
Dorsal Root Gangliar (DRG)-derived neurons were cultured for 7 days and then treated in blind with the following combinations: 10 nM Paclitaxel, 10 nM Paclitaxel+1 μM DF3966Y, 1 μg/ml C5a, 1 μg/ml C5a+1 μM DF3966Y.
The compounds were administered for 1 min 30 sec (short acute stimulation) or 5 minutes (long chronic stimulation). The application of the compounds was followed by a wash-out in the physiological control solution for an equivalent time (about 10 min).
Electrophysiological recordings were performed by the patch-clamp technique in the whole-cell configuration. The standard extracellr solution was bath applied and contained the following (mM): NaCl 135, KCl 2, CaCl2 2, MgCl2 2, hepes 10, glucose 5, pH 7.4. The standard pipet solution contained the following (mM): potassium aspartate 130, NaCl 10, MgCl2 2, CaCl2 1.3, EGTA 10, Hepes 10, pH 7.3. Recordings were acquired by the pClamp8.2 software and the MultiClamp 700A amplifier (Axon Instruments), in current-clamp mode.

DRG neurons [5] = test: Cells number of DRG neurons (immunofluorescence, image analysis); type: cell-based
Experimental: as §7, §8, §9, §10, §11, §12, §13, §14, §15, §16

male Balb/C mice [6] = test: Intrathecal injection of recombinant C5a, thermal threshold (Hargreaves test); type: in vivo; details: higher doses, between 5 and 7 hours after injection
Experimental: as §1
(§17) Recombinant mouse C5a was given by intrathecal way, in a volume of 5 μL, and its effect follows for 1, 3, 5, 7 and 24 hours after injection.
Hargreaves test was performed as previous described (HARGREAVES et al., 1988). The animals were habituated on a glass surface with controlled temperature, which allow the homogeneous delivery of infrared light on the paw. After the activation of the light source, a chronometer was turned on. A crescent temperature reached the paw and the chronometer was turned off as soon as the animal did a withdraw movement out the light. The time recorded was considered the heat latency. […]

male Balb/C mice [7] = test: Intrathecal injection of recombinant C5a, mechanical threshold (von Frey hair test); type: in vivo
Experimental: as §1, §17, §6

DRG neurons [8] = test: Dendritic tree area of DRG neurons (image analysis); type: cell-based, Sprague Dawley rat; details: C5a alone (Table 7), relative to UT
Experimental: as §7, §8, §9, §10, §11, §12, §13, §14
Dendritic arborization directly influences synaptic genesis and input. A well-developed arborization indicates a functional synaptic network. For this reason, the area occupied by dendritic arborization has been quantified.
as §16

[9] = 1 mg/kg oral, 8th and 14th day of CIIP, 2 until 6 hours after administration
[10] = 1 mg/kg p.o. 12/12 hours for 7 days during induction phase of CIIP, 1 hour before paclitaxel
[11] = 10, 30 or 100 μg/5 μL intrathecal, established CIIP (8 and 14th day)

## C[C@@H](NC(=O)CCCN1CCCCC1)c1ccc(OS(=O)(=O)C(F)(F)F)cc1 [DF2593A, N-[(1R)-1-(4-trifluoromethanesulfonyloxy)phenylethyl]-4-piperidin-1-ylbutanamide]
[1]; 10 μg/5 μL intrathecal, 8th day
  efficacy of the lowest intrathecal dose: still statistically significant
[1]; [9]
  mechanical hypersensitivity, acute oral post treatment: able to reduce the mechanical hypersensitivity
[1]; 1 mg/kg oral, established pain condition
  duration of reduction of mechanical and cold hypersensitivity after administration: at least 6 hours
[1]; [10]
  development of mechanical nociceptive response, chronic pre treatment: prevents the development
[1]; [11]
  mechanical allodynia, intrathecal treatment: improves mechanical and cold allodynia
[1]; chronic 1 mg/kg p.o., 24 hours after the last DF2593A dose
  effect on mechanical and cold response 24 hours after the last dose: no effect is observed
[2]; [9]
  cold response, acute oral post treatment: is reduce after DF2593A treatment
[2]; [10]
  development of cold nociceptive response, chronic pre treatment: prevents the development
[2]; [11]
  cold allodynia, intrathecal treatment: improves mechanical and cold allodynia
Acetylated α-Tubulin; drug 0.1 μM under Paclitaxel 200 nM, 24 hr
  Acetylated α-Tubulin (% of UT): 107.38 % of UT
Acetylated α-Tubulin; drug 0.1 μM, Paclitaxel 200 nM
  reversal of Paclitaxel-induced increase in acetylated α-Tubulin: not able to revert
Acetylated α-Tubulin; drug 1 μM under Paclitaxel 200 nM, 24 hr
  Acetylated α-Tubulin (% of UT): 100.67 % of UT
Acetylated α-Tubulin; drug 1 μM, Paclitaxel 200 nM
  reversal of Paclitaxel-induced increase in acetylated α-Tubulin: reverted the Paclitaxel-induced challenge
Acetylated α-Tubulin; drug 10 μM under Paclitaxel 200 nM, 24 hr
  Acetylated α-Tubulin (% of UT): 70.72 % of UT
Acetylated α-Tubulin; drug 10 μM, Paclitaxel 200 nM
  reduction in acetylated α-Tubulin with respect to control (UT) cells: about 25%

B1: C5a: recombinant mouse C5a, complement peptide fragment, purchased from R&D (protein, UniProt P06684 679-755, looked up)
C5a anaphylatoxin: NLHLLRQKIEEQAAKYKHSVPKKCCYDGARVNFYETCEERVARVTIGPLCIRAFNECCTIANKIRKESPHKPVQLGR
modifications: C5a anaphylatoxin
notes: recombinant mouse C5a, complement peptide fragment, purchased from R&D
Acetylated α-Tubulin; C5a 1 μg/ml alone, 24 hr
  levels of acetylated α-Tubulin under C5a: able to increase the levels of acetylated α-Tubulin
DRG neurons [3]; C5a alone
  neuronal activity damage (synapse number): did not induce neuronal activity damage
DRG neurons [3]; C5a alone (Table 5), relative to UT
  % of synapse number: 116.90 ± 17.43%
DRG neurons [4]; immediate
  increase of the firing rate, immediate: +55.61%
DRG neurons [4]; longer times of exposure
  reduction of electrical activity, longer times of exposure: about 70%
DRG neurons [5]; C5a alone (Table 3), relative to UT
  % of cell number: 98.69 ± 4.22%
DRG neurons [5]; C5a alone or in combination with DF3966Y 1 μM
  neuronal death: did not induce neuronal death
Male Balb/C mice [6]
  heat latency after intrathecal C5a: caused a decrease in heat latency
Male Balb/C mice [7]; 100, 300 and 600 ng/5 μL intrathecal, mice, up to 24 hours after injection
  mechanical threshold after intrathecal C5a: promoted reduction of mechanical threshold in a dose-dependent manner
Male Balb/C mice [7]; intrathecal C5a, C5aR−/− mice
  C5a pro-nociceptive effect in C5aR−/− mice: abrogated
DRG neurons [8]
  % dendritic tree area: 102.68 ± 9.48%
